In publication PMC11513892, “Discovery of a Series of Macrocycles as Potent Inhibitors of Leishmania Infantum” (Journal of Medicinal Chemistry, 2024):
pEC50: −log10 of the molar value. Read-outs that look alike come from different tables or passages of the source.

Assays:
[1] = Kinetic solubility in phosphate buffered saline at pH 7.4; type: physicochemical
Experimental: (§1) The kinetic solubility in phosphate buffered saline at pH 7.4, chromatographic Log D at pH 7.4, cell permeability across a MDCK-MDR1 cell monolayer at pH 7.4, and the clearance in mouse liver microsomes of 1–12 was determined at TCG Lifesciences.

MRC-5 cells = assay: Host cell cytotoxicity in MRC-5 cells; type: cell-based, human; details: CSV supplement; decimal comma
L. infantum = assay: Growth of L. infantum in infected primary mouse macrophages (PMMs), phenotypic assay; type: cell-based, Leishmania infantum; details: for EC50 / pEC50: Leishmania infantum, Macrophage; for EC50: mean (standard deviation, number of measurements), read-out: EC50 (μM), inhibition of the growth of L. infantum; for pEC50: CSV supplement, decimal comma, read-out: EC50 L. infantum MHOM/MA(BE)/67; for loss in potency compared to 3, L. infantum: relative to compound 3
Excerpt: (§2) We previously reported the synthesis of a series of macrocycles, including 1 (Figure 2A), designed to investigate how structural features influence molecular chameleonicity.[15],[21] Originating from the structural similarities between 1 and hymenocardine, we investigated 1 in screens for P. falciparum and four kinetoplastid parasites: T. b. brucei, T. b. rhodesiense, T. cruzi, and L. infantum. In the screens, we also included compounds 2 and 3 (Figure 2A), which were obtained from an intermediate late in the synthetic route to 1. Since very few validated protein targets relevant to clearance of parasites are known, phenotypic assays were used to investigate the antiparasitic activity for all five parasites. For malaria, the P. falciparum blood stage 3D7 strain was used to test the three compounds. For the two Trypanosoma brucei species, the reduction in trypomastigote growth in culture medium was determined after the addition of 1–3. For T. cruzi, the intracellular parasite growth in infected human fibroblasts (MRC-5 cell line) was assessed in the presence and absence of the three inhibitors. Similarly, the growth of L. infantum was assessed in infected primary mouse macrophages (PMMs) in the presence and absence of the inhibitors. […] The assays for T. cruzi and L. infantum are complex, i.e., they determine the degree of inhibition of parasitic replication in a mammalian cell line; this complexity may lead to a high variability for some compounds.
(§3) The potency of macrocycles 1–12 to inhibit the growth of L. infantum was determined in a phenotypic assay in which the parasite was grown in primary peritoneal mouse macrophages (PMMs). To understand whether the SAR for inhibition of parasitic growth is impacted by low cell permeability, the permeability of compounds 1–12 was determined separately. Madin-Darby canine kidney (MDCK) cells transfected with the human MDR1 (multidrug resistance 1) gene (MDCK-MDR1 cells) were used to determine permeabilities in the apical to basolateral direction (Papp AB) as well as efflux ratios (ERs). […] Lipophilicity (Log D at pH 7.4), aqueous kinetic solubility and mouse liver microsomal metabolism were also determined for 1–12, and are discussed separately (cf. physiochemical properties and ADMET, below).
(§4) The growth of the P. falciparum blood stage 3D7 strain,[53] the two T. brucei species in axenic cultures,[54]T. cruzi in infected human fibroblasts (MRC-5 cell line),[55] and of L. infantum in infected primary mouse macrophages (PMMs)[56] was determined as previously reported in the presence and absence of inhibitors 1–12.

[2] = Clearance in mouse liver microsomes; type: in vitro ADME; details: for microsomal CLint: mouse, liver microsomes
Experimental: as §1

MDR1 = assay: in vitro; type: in vitro ADME, canine; details: dog; for Papp B→A: MDCK-MDR1, pH 7.4; for Papp A→B: MDCK-MDR1, pH 7.4, Papp AB
Experimental: as §3, §1

[3] = Chromatographic Log D at pH 7.4; type: physicochemical; details: 1-octanol/PBS pH 7.4, determined by chromatography, mean of two measurements
Experimental: as §1

T. b. rhodesiense = assay: Growth of T. b. rhodesiense trypomastigotes in axenic culture; type: cell-based, Trypanosoma brucei rhodesiense; details: Trypanosoma brucei
Excerpt: as §2, §4

[4] = tested on: primary mouse macrophages (PMMs); assay: Host cell cytotoxicity in primary mouse macrophages (PMM); type: cell-based; details: CSV supplement; decimal comma
T. cruzi = assay: Intracellular growth of T. cruzi in infected human fibroblasts (MRC-5 cell line); type: cell-based; details: Trypanosoma cruzi
Excerpt: as §2, §4

T. b. brucei = assay: Growth of T. b. brucei trypomastigotes in axenic culture; type: cell-based; details: Trypanosoma brucei
Excerpt: as §2, §4

[5] = Clearance in human microsomes; type: in vitro ADME; details: CSV supplement; for microsomal CLint: human, microsomes, read-out: CLint in vitro Human Microsomes
Excerpt: Supplement jm4c01370_si_002.csv, table | column: CLint in vitro Human Microsomes µL/min/mg; t(1/2) min

[6] = phosphate buffered saline, pH 7.4, CSV supplement, read-out: Kinetic solubility
[7] = phosphate buffered saline, pH 7.4, phosphate buffered saline pH 7.4, assay range 2.5–200 μM, read-out: solubility (kinetic)
[8] = CSV supplement, read-out: CLint in vitro Mouse Microsomes
[9] = incubation with mouse liver microsomes, read-out: CLint
[10] = RHODESIENSE / STIB900, CSV supplement, decimal comma, read-out: EC50 T.b. rhodesiense STIB 900
[11] = MRC5, Table S1, mean (SD), 2 to 14 measurements, unit not given in Table S1, read-out: In vitro potency, T. cruzi
[12] = TULAHUEN, MRC5, read-out: EC50 T. cruzi Tulahuen C4 (LacZ)
[13] = CSV supplement, decimal comma, read-out: EC50 T.b. brucei Squib 427
[14] = Table S1, mean (SD), 2 to 14 measurements, unit not given in Table S1, read-out: In vitro potency, T. b. brucei
[15] = MDCK-MDR1, pH 7.4, ER, efflux ratio (BA/AB)
[16] = MDCK-MDR1, pH 7.4, MDCK MDR1 - pH 7.4 Efflux Ratio
[17] = RHODESIENSE, Table S1, mean (SD), 2 to 14 measurements, unit not given in Table S1, read-out: In vitro potency, T. b. rhodesiense

SMILES	solubility kinetic [1, 6] [µg/mL]	solubility kinetic [1, 7] [µM]	MRC-5 cells Human Lung Fibroblast Cells (cytotoxicity) (MRC-5 cells) [µM]	EC50 (L. infantum; Table 1) [µM]	t(1/2), Mouse Microsomes ([2]; CSV supplement)	microsomal CLint [2, 8] [µL/min/mg]	microsomal CLint [2, 9] [µL/min/mg]	Papp B→A (MDR1) [×10⁻⁶ cm/s]	chromatographic logD [3]	pEC50 (T. b. rhodesiense; [10])	PMM Primary Mouse Macrophages (inf-LMPH) (cytotoxicity) [4] [µM]	pEC50 (T. cruzi; [11])	pEC50 (T. cruzi; [12])	pEC50 (T. b. brucei; [13])	pEC50 (T. b. brucei; [14])	pEC50 (L. infantum)	loss in potency compared to 3, L. infantum (L. infantum) [fold]	efflux ratio (MDR1; [15])	efflux ratio (MDR1; [16])	Papp A→B (MDR1) [×10⁻⁶ cm/s]	other results
COc1ccc(C[C@H](NC(=O)OC(C)(C)C)C(=O)N[C@@H](Cc2ccccc2)C(=O)NCC(=O)c2cccc(NC(=O)c3ccccn3)c2)cc1 [Compound 4, tert-Butyl ((S)-3-(4-Methoxyphenyl)-1-oxo-1-(((S)-1-oxo-1-((2-oxo-2-(3-(picolinamido)phenyl)ethyl)amino)-3-phenylpropan-2-yl)amino)propan-2-yl)carbamate]	4.9	7.3	>64	38	<3 min	> 578	> 580	2.4	4.7	5.21	>64	4.19	< 4.19	4.49	4.48	–	–	–	–	–	activity in the L. infantum phenotypic screen (in words) (L. infantum; Table 1): inactive; t(1/2), Human Microsomes [5]: <3 min; microsomal CLint [5]: > 578 µL/min/mg
CC(C)(C)OC(=O)N[C@H]1CCc2ccc(cc2)Oc2ccc(cc2NC(=O)c2ccccn2)C(=O)CNC(=O)[C@H](Cc2ccccc2)NC1=O [Compound 5, tert-Butyl ((8S,11S)-8-Benzyl-4,7,10-trioxo-3^2-(picolinamido)-2-oxa-6,9-diaza-1,3(1,4)-dibenzenacyclotridecaphane-11-yl)carbamate]	1.8	2.7	>64	17	<3 min	> 578	> 580	17.3	4.8	5.25	>64	–	4.74	5.13	–	4.78	~10	13	13.2	1.3	t(1/2), Human Microsomes [5]: <3 min; microsomal CLint [5]: > 578 µL/min/mg
C[C@@H]1NC(=O)[C@@H](NC(=O)OC(C)(C)C)Cc2ccc(cc2)Oc2ccc(cc2NC(=O)c2ccccn2)C(=O)CNC1=O [Compound 7, tert-Butyl ((8S,11S)-8-Methyl-4,7,10-trioxo-3^2-(picolinamido)-2-oxa-6,9-diaza-1,3(1,4)-dibenzenacyclododecaphane-11-yl)carbamate]	73.7	> 100	>64	16	5,8 min	297	300	39.3	3.5	5.01	>64	4.44	4.45	4.31	–	4.81	~10	28	28.3	1.4	solubility kinetic ([1]; phosphate buffered saline pH 7.4, assay range 2.5–200 μM, read-out: solubility (kinetic)): 126 µM
CC(C)(C)OC(=O)N[C@H]1Cc2ccc(cc2)Oc2ccc(cc2NC(=O)c2ccccn2)C(=O)CNC(=O)[C@@H](Cc2ccccc2)NC1=O [Compound 8, tert-Butyl ((8R,11S)-8-Benzyl-4,7,10-trioxo-3^2-(picolinamido)-2-oxa-6,9-diaza-1,3(1,4)-dibenzenacyclododecaphane-11-yl)carbamate]	1.9	2.9	>64	8.2	<3 min	> 578	> 580	22.3	4.8	5.19	>64	–	5.21	5.09	–	–	–	7.6	7.6	2.9	–
CC(=O)N[C@H]1Cc2ccc(cc2)Oc2ccc(cc2NC(=O)c2ccccn2)C(=O)CNC(=O)[C@H](Cc2ccccc2)NC1=O [Compound 11]	58.3	96	>64	38	12,9 min	134	130	17.8	3.2	4.63	>64	–	4.48	4.57	4.44	4.43	> 20	–	–	1.1	efflux ratio (MDR1; MDCK-MDR1, pH 7.4, CSV supplement, pH 7.4, read-out: MDCK MDR1 - pH 7.4 Efflux Ratio): 15.7; efflux ratio (MDR1; MDCK-MDR1, pH 7.4, MDCK-MDR1 cell monolayer, read-out: ER, efflux ratio (BA/AB)): 16; pEC50 (T. b. rhodesiense; [17]): 4.62
CC(C)(C)C(=O)N[C@H]1Cc2ccc(cc2)Oc2ccc(cc2NC(=O)c2ccccn2)C(=O)CNC(=O)[C@H](Cc2ccccc2)NC1=O [Compound 12, tert-Butyl ((8S,11S)-8-Benzyl-4,7,10-trioxo-11-pivalamido-2-oxa-6,9-diaza-1,3(1,4)-dibenzenacyclododecaphane-3^2-yl)picolinamide]	10.3	16	>64	7.1	<3 min	> 578	> 580	31.8	4.4	4.67	>64	4.19	< 4.19	4.52	4.52	–	–	21	20.8	1.5	pEC50 (T. b. rhodesiense; [17]): 4.68
CCCCCCCCCCCCCCCCOP(=O)([O-])OCC[N+](C)(C)C [Miltefosine, miltefosine, reference compound]	–	–	–	6.1	–	–	–	–	–	–	–	–	–	–	–	–	–	–	–	–	–
